Measurements from ChEMBL document CHEMBL1201862, “PubChem BioAssay data set” (2004).
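Tested at 5 concentrations; 48 h exposure; 96-well plates; endpoints linearly interpolated, else capped at highest concentration. Abbreviation: GI50, concentration required for 50% inhibition of growth.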 Calls of active or inactive are those of the source. Rule as the data show it: active = GI50 up to about 1.1 µM and inactive = higher.

Experiments:
Assay in all cases: NCI anticancer screen, dose series, 48 h
MOLT-4 = test system: MOLT-4
MDA-MB-435 = test system: MDA-MB-435
CCRF-CEM = test system: CCRF-CEM
LOX IMVI = test system: LOX IMVI
SF-295 = test system: SF-295
MDA-MB-231 = test system: MDA-MB-231
NCI-H226 = test system: NCI-H226
Malme-3M = test system: Malme-3M
HT-29 = test system: HT-29
EKVX = test system: EKVX
UACC-62 = test system: UACC-62
OVCAR-4 = test system: OVCAR-4
A549 = test system: A549
SR = test system: SR
UO-31 = test system: UO-31
SNB-75 = test system: SNB-75
T47D = test system: T47D
HOP-62 = test system: HOP-62
Hs-578T = test system: Hs-578T
PC-3 = test system: PC-3
SF-268 = test system: SF-268
SF-539 = test system: SF-539
RXF 393 = test system: RXF 393
RPMI-8226 = test system: RPMI-8226
SN12C = test system: SN12C
HOP-92 = test system: HOP-92
HCT-15 = test system: HCT-15
SNB-19 = test system: SNB-19
NCI-H23 = test system: NCI-H23
KM12 = test system: KM12
OVCAR-8 = test system: OVCAR-8
786-0 = test system: 786-0
SW-620 = test system: SW-620
U-251 = test system: U-251
OVCAR-3 = test system: OVCAR-3
NCI/ADR-RES = test system: NCI/ADR-RES
IGROV-1 = test system: IGROV-1
NCI-H460 = test system: NCI-H460
MDA-N = test system: MDA-N
OVCAR-5 = test system: OVCAR-5
ACHN = test system: ACHN
BT-549 = test system: BT-549
SK-MEL-2 = test system: SK-MEL-2
K562 = test system: K562
SK-MEL-28 = test system: SK-MEL-28
SK-OV-3 = test system: SK-OV-3
TK-10 = test system: TK-10
A498 = test system: A498
SK-MEL-5 = test system: SK-MEL-5
MCF7 = test system: MCF7
HCC 2998 = test system: HCC 2998
HL-60 = test system: HL-60
DU-145 = test system: DU-145
M14 = test system: M14
NCI-H522 = test system: NCI-H522
CAKI-1 = test system: CAKI-1
UACC-257 = test system: UACC-257
HCT-116 = test system: HCT-116
COLO 205 = test system: COLO 205

Measured: GI50

CC(C)OC(=S)Nc1ccc(Cl)c(/C=N/OC(C)(C)C)c1
16.6 µM: HCT-15
inactive: MOLT-4 15.6 µM | MDA-MB-435 18 µM | CCRF-CEM 15.9 µM | LOX IMVI 17.1 µM | SF-295 13.5 µM | MDA-MB-231 14.9 µM | NCI-H226 17.9 µM | Malme-3M 16.7 µM | HT-29 14.4 µM | EKVX 15.4 µM | UACC-62 16.4 µM | OVCAR-4 18.1 µM | A549 16.9 µM | SR 20.4 µM | UO-31 13.9 µM | SNB-75 23.5 µM | T47D 15.7 µM | HOP-62 19.5 µM | Hs-578T 16.6 µM | PC-3 20.1 µM | SF-268 19.3 µM | SF-539 15.5 µM | RXF 393 14.5 µM | RPMI-8226 18.1 µM | SN12C 16.7 µM | HOP-92 12.2 µM | SNB-19 20.7 µM | NCI-H23 18.5 µM | KM12 12.5 µM | OVCAR-8 12.3 µM | 786-0 16.7 µM | SW-620 16.6 µM | U-251 17.1 µM | OVCAR-3 18.5 µM | NCI/ADR-RES 11.9 µM | IGROV-1 17.5 µM | NCI-H460 17.4 µM | MDA-N 22.9 µM | OVCAR-5 16 µM | ACHN 15.1 µM | BT-549 18.5 µM | SK-MEL-2 18.5 µM | K562 20 µM | SK-MEL-28 21.7 µM | SK-OV-3 19.8 µM | TK-10 12.4 µM | A498 12.6 µM | SK-MEL-5 16.2 µM | MCF7 22.9 µM | HCC 2998 19.6 µM | HL-60 16.4 µM | DU-145 13 µM | M14 19.9 µM | NCI-H522 15.7 µM | CAKI-1 15.1 µM | UACC-257 18.2 µM | HCT-116 15.4 µM | COLO 205 17.1 µM

C=C(Cl)/C(=C/Cl)CCC(Br)C(C)(C)Cl.C=C(Cl)/C(=C\Cl)CCC(Br)C(C)(C)Cl (stereo not drawn)
inactive: MOLT-4 3.1 µM | MDA-MB-435 > 10 µM | CCRF-CEM 2.66 µM | LOX IMVI > 10 µM | SF-295 > 10 µM | MDA-MB-231 > 10 µM | NCI-H226 > 10 µM | Malme-3M > 10 µM | HT-29 > 10 µM | EKVX > 10 µM | UACC-62 > 10 µM | OVCAR-4 > 10 µM | A549 > 10 µM | SR 5.45 µM | UO-31 > 10 µM | SNB-75 > 10 µM | T47D > 10 µM | HOP-62 > 10 µM | Hs-578T > 10 µM | PC-3 > 10 µM | SF-268 > 10 µM | SF-539 > 10 µM | RXF 393 > 10 µM | RPMI-8226 > 10 µM | SN12C > 10 µM | HOP-92 > 10 µM | SNB-19 > 10 µM | NCI-H23 > 10 µM | KM12 > 10 µM | OVCAR-8 > 10 µM | 786-0 > 10 µM | SW-620 > 10 µM | U-251 > 10 µM | OVCAR-3 > 10 µM | NCI/ADR-RES > 10 µM | IGROV-1 > 10 µM | NCI-H460 > 10 µM | MDA-N > 10 µM | OVCAR-5 > 10 µM | ACHN > 10 µM | BT-549 > 10 µM | SK-MEL-2 > 10 µM | K562 5.43 µM | SK-MEL-28 > 10 µM | SK-OV-3 > 10 µM | TK-10 > 10 µM | A498 > 10 µM | SK-MEL-5 > 10 µM | MCF7 > 10 µM | HCC 2998 > 10 µM | HL-60 3.56 µM | DU-145 > 10 µM | M14 > 10 µM | NCI-H522 9.77 µM | CAKI-1 > 10 µM | UACC-257 > 10 µM | HCT-116 > 10 µM | COLO 205 > 10 µM
> 10 µM: HCT-15
